Laboratory results reported in patent publication US9822147B2, “Methods of treating ophthalmic diseases using NPR-B agonists” (priority 2009, dated 2017).
Numbered stars: 1 amine (or outer) side, 2 acyl side, 3 side chain; on linkers, the order of the positions; unused ones are H or OH. Square brackets hold non-standard residues; d marks the D form. Peptide text beside a SMILES is read from it. * marks the point of attachment. X2 = O=C([C@H]1CCCN([*:1])C1)[*:2]; Hyp = O=C(O)[C@@H]1C[C@@H](O)CN1; dNle = CCCC[C@@H](N)C(=O)O; Octanoyl = CCCCCCCC(=O)*

Target: T1, NPR-B (Homo sapiens, UniProt P20594)
T1 construct: a functional assay using endogenously NPR-B expressing GTM-3 cells; endogenous in cells; host or cells: GTM-3 (human glaucoma trabecular meshwork cells)
T1 sequence (P20594 23-1047): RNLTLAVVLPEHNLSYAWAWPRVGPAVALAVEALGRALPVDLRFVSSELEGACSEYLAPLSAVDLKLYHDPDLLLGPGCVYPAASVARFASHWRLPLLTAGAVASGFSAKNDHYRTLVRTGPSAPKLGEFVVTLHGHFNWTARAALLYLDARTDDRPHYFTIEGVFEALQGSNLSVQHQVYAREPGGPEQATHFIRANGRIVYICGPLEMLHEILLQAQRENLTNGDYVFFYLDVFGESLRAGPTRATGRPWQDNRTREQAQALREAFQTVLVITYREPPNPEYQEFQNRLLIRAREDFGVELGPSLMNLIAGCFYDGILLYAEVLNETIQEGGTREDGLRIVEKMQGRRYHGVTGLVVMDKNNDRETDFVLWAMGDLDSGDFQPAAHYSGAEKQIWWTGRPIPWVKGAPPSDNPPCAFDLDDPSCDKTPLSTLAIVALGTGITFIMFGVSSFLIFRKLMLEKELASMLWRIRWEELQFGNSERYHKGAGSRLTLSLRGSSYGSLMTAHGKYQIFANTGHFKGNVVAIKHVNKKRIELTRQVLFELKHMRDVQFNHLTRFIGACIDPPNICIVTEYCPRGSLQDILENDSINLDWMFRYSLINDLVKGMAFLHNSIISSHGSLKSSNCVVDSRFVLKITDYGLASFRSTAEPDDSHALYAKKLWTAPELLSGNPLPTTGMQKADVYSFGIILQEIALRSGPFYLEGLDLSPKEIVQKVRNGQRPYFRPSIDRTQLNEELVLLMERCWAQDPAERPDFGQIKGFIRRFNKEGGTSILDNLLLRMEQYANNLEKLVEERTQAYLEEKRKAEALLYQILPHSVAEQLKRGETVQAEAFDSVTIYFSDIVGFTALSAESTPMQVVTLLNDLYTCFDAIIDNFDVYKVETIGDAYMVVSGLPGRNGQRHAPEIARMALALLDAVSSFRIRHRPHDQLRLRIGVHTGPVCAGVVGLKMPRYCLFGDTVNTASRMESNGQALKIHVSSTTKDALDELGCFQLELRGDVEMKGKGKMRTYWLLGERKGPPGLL
Experiment: NPR-B induced production of cyclic GMP in human glaucoma trabecular meshwork cells (GTM-3)
Type: cell-based
Conditions: group by EC50 and Emax (CNP = 100%); Table 4; read-out: Activity (group), NPR-B activation assayed with GTM-3 cells

| EC50 [nM] | Structure (SMILES) |
| --- | --- |
| < 1000 | CCCCCCCC(=O)N1CCC[C@H](C(=O)N[C@@H](Cc2ccccc2)C(=O)N[C@H](CCCC)C(=O)N[C@@H](CC(C)C)C(=O)N2C[C@H](O)C[C@H]2C(=O)N[C@@H](CC(C)C)C(=O)N[C@@H](CC(=O)O)C(=O)N[C@@H](CCCNC(=N)N)C(=O)N[C@H](C(N)=O)[C@@H](C)CC)C1 [JAL-1024, Occ-Sni-Phe-nle-Leu-Hyp-Leu-Asp-Arg-Ile-NH2] (Octanoyl-[X2]F[dNle]L[Hyp]LDRI-NH2) |
| < 1000 | CCCCCCCC(=O)N[C@H](C)C(=O)N[C@@H](Cc1ccccc1)C(=O)N[C@H](CC(C)C)C(=O)N[C@@H](CC(C)C)C(=O)N1CCC[C@H]1C(=O)N(C)[C@@H](CC(C)C)C(=O)N[C@@H](CC(=O)O)C(=O)N[C@@H](CCCNC(=N)N)C(=O)N[C@H](C(N)=O)[C@@H](C)CC [JAL-1039, Occ-ala-Phe-leu-Leu-Pro-Nml-Asp-Arg-Ile-NH2] (HELM PEPTIDE1{[CCCCCCCC(=O)[*:2]].[dA].F.[dL].L.P.[meL].D.R.I.[am]}$$$$V2.0) |
| < 1000 | CCCCCCCC(=O)N1CCC[C@H](C(=O)N[C@@H](Cc2ccccc2)C(=O)N[C@H](CC(C)C)C(=O)N[C@@H](CC(C)C)C(=O)N2CCC[C@H]2C(=O)N(C)[C@@H](CC(C)C)C(=O)N[C@@H](CC(=O)O)C(=O)N[C@@H](CCCNC(=N)N)C(=O)N[C@H](C(N)=O)[C@@H](C)CC)C1 [JAL-1040, Occ-Sni-Phe-leu-Leu-Pro-Nml-Asp-Arg-Ile-NH2] (HELM PEPTIDE1{[CCCCCCCC(=O)[*:2]].[O=C([C@H]1CCCN([*:1])C1)[*:2]].F.[dL].L.P.[meL].D.R.I.[am]}$$$$V2.0) |
| < 1000 | CCCCCCCC(=O)N[C@H](C)C(=O)N[C@@H](Cc1ccccc1)C(=O)N[C@H](CCCC)C(=O)N[C@@H](CC(C)C)C(=O)N1C[C@H](O)C[C@H]1C(=O)N(C)[C@@H](CC(C)C)C(=O)N[C@@H](CC(=O)O)C(=O)N[C@@H](CCCNC(=N)N)C(=O)N[C@H](C(N)=O)[C@@H](C)CC [JAL-1044, Occ-ala-Phe-nle-Leu-Hyp-Nml-Asp-Arg-Ile-NH2] (HELM PEPTIDE1{[CCCCCCCC(=O)[*:2]].[dA].F.[CCCC[C@@H](N[*:1])C(=O)[*:2]].L.[Hyp].[meL].D.R.I.[am]}$$$$V2.0) |
| < 1000 | CCCCCCCC(=O)N[C@H](C)C(=O)N(C)[C@@H](Cc1ccccc1)C(=O)N[C@H](CC(C)C)C(=O)N[C@@H](CC(C)C)C(=O)N1C[C@H](O)C[C@H]1C(=O)N[C@@H](CC(C)C)C(=O)N[C@@H](CC(=O)O)C(=O)N[C@@H](CCCNC(=N)N)C(=O)N[C@H](C(N)=O)[C@@H](C)CC [JAL-1052, Occ-ala-Nmf-leu-Leu-Hyp-Leu-Asp-Arg-Ile-NH2] (HELM PEPTIDE1{[CCCCCCCC(=O)[*:2]].[dA].[meF].[dL].L.[Hyp].L.D.R.I.[am]}$$$$V2.0) |
| < 1000 | CCCCCCCC(=O)N1CCC[C@@H]1C(=O)N[C@@H](Cc1ccccc1)C(=O)N[C@H](CC(C)C)C(=O)N[C@@H](CC(C)C)C(=O)N1C[C@H](O)C[C@H]1C(=O)N[C@@H](CC(C)C)C(=O)N[C@@H](CC(=O)O)C(=O)N[C@@H](CCCNC(=N)N)C(=O)N[C@H](C(N)=O)[C@@H](C)CC [JAL-1053, Occ-pro-Phe-leu-Leu-Hyp-Leu-Asp-Arg-Ile-NH2] (HELM PEPTIDE1{[CCCCCCCC(=O)[*:2]].[dP].F.[dL].L.[Hyp].L.D.R.I.[am]}$$$$V2.0) |
| < 1000 | CCCCCCCC(=O)N1CCCC[C@@H]1C(=O)N[C@@H](Cc1ccccc1)C(=O)N[C@H](CC(C)C)C(=O)N[C@@H](CC(C)C)C(=O)N1C[C@H](O)C[C@H]1C(=O)N[C@@H](CC(C)C)C(=O)N[C@@H](CC(=O)O)C(=O)N[C@@H](CCCNC(=N)N)C(=O)N[C@H](C(N)=O)[C@@H](C)CC [JAL-1054, Occ-pip-Phe-leu-Leu-Hyp-Leu-Asp-Arg-Ile-NH2] (HELM PEPTIDE1{[CCCCCCCC(=O)[*:2]].[O=C([C@H]1CCCCN1[*:1])[*:2]].F.[dL].L.[Hyp].L.D.R.I.[am]}$$$$V2.0) |
| < 1000 | CCCCCCCC(=O)N[C@H](C)C(=O)N[C@@H](Cc1ccccc1)C(=O)N[C@H](CCCN)C(=O)N[C@@H](CC(C)C)C(=O)N1C[C@H](O)C[C@H]1C(=O)N(C)[C@@H](CC(C)C)C(=O)N[C@@H](CC(=O)O)C(=O)N[C@@H](CCCNC(=N)N)C(=O)N[C@H](C(N)=O)[C@@H](C)CC [JAL-1061, Occ-ala-Phe-orn-Leu-Hyp-Nml-Asp-Arg-Ile-NH2] (HELM PEPTIDE1{[CCCCCCCC(=O)[*:2]].[dA].F.[NCCC[C@@H](N[*:1])C(=O)[*:2]].L.[Hyp].[meL].D.R.I.[am]}$$$$V2.0) |
| < 1000 | CCCCCCCC(=O)N1CCCC[C@@H]1C(=O)N(C)[C@@H](Cc1ccccc1)C(=O)N[C@H](CCCNC(=N)N)C(=O)N[C@@H](CC(C)C)C(=O)N1CCC[C@H]1C(=O)N(C)[C@@H](CC(C)C)C(=O)N[C@@H](CC(=O)O)C(=O)N[C@@H](CCCNC(=N)N)C(=O)N[C@H](C(N)=O)[C@@H](C)CC [JAL-1077, Occ-pip-Nmf-arg-Leu-Pro-Nml-Asp-Arg-Ile-NH2] (HELM PEPTIDE1{[CCCCCCCC(=O)[*:2]].[O=C([C@H]1CCCCN1[*:1])[*:2]].[meF].[dR].L.P.[meL].D.R.I.[am]}$$$$V2.0) |
| < 1000 | CCCCCCCC(=O)N1CCCC[C@@H]1C(=O)N[C@@H](Cc1ccccc1)C(=O)N[C@H](CCCNC(=N)N)C(=O)N[C@@H](CC(C)C)C(=O)N1CCC[C@H]1C(=O)N(C)[C@@H](CC(C)C)C(=O)N[C@@H](CC(=O)O)C(=O)N[C@@H](CCCNC(=N)N)C(=O)N[C@H](C(N)=O)[C@@H](C)CC [JAL-1078, Occ-pip-Phe-arg-Leu-Pro-Nml-Asp-Arg-Ile-NH2] (HELM PEPTIDE1{[CCCCCCCC(=O)[*:2]].[O=C([C@H]1CCCCN1[*:1])[*:2]].F.[dR].L.P.[meL].D.R.I.[am]}$$$$V2.0) |
| < 1000 | CCCCCCCC(=O)N1CCCC[C@@H]1C(=O)N[C@@H](Cc1ccccc1)C(=O)N[C@H](CCCNC(=N)N)C(=O)N[C@@H](CC(C)C)C(=O)N1C[C@H](O)C[C@H]1C(=O)N(C)[C@@H](CC(C)C)C(=O)N[C@@H](CC(=O)O)C(=O)N[C@@H](CCCNC(=N)N)C(=O)N[C@H](C(N)=O)[C@@H](C)CC [JAL-1087, Occ-pip-Phe-arg-Leu-Hyp-Nml-Asp-Arg-Ile-NH2] (HELM PEPTIDE1{[CCCCCCCC(=O)[*:2]].[O=C([C@H]1CCCCN1[*:1])[*:2]].F.[dR].L.[Hyp].[meL].D.R.I.[am]}$$$$V2.0) |

| Structure (SMILES) | EC50 [nM] |
| --- | --- |
| CCCCCCCC(=O)N[C@H](C)C(=O)N[C@@H](Cc1ccc(Cl)cc1)C(=O)N[C@H](CC(C)C)C(=O)N[C@@H](CC(C)C)C(=O)N1C[C@H](O)C[C@H]1C(=O)N(C)[C@@H](CC(C)C)C(=O)N[C@@H](CC(=O)O)C(=O)N[C@@H](CCCNC(=N)N)C(=O)N[C@H](C(N)=O)[C@@H](C)CC [JAL-1043, Occ-ala-Pcf-leu-Leu-Hyp-Nml-Asp-Arg-Ile-NH2] (HELM PEPTIDE1{[CCCCCCCC(=O)[*:2]].[dA].[O=C([C@H](Cc1ccc(Cl)cc1)N[*:1])[*:2]].[dL].L.[Hyp].[meL].D.R.I.[am]}$$$$V2.0) | < 1000 |
| CCCCCCCC(=O)N[C@H](C)C(=O)N[C@@H](Cc1ccc(Cl)cc1)C(=O)N[C@H](CC(C)C)C(=O)N[C@@H](CC(C)C)C(=O)N1C[C@H](O)C[C@H]1C(=O)N[C@@H](CC(C)C)C(=O)N[C@@H](CC(=O)O)C(=O)N[C@@H](CCCNC(=N)N)C(=O)N[C@H](C(N)=O)[C@@H](C)CC [JAL-1050, Occ-ala-Pcf-leu-Leu-Hyp-Leu-Asp-Arg-Ile-NH2] (HELM PEPTIDE1{[CCCCCCCC(=O)[*:2]].[dA].[O=C([C@H](Cc1ccc(Cl)cc1)N[*:1])[*:2]].[dL].L.[Hyp].L.D.R.I.[am]}$$$$V2.0) | < 1000 |
